Results from ChEMBL document CHEMBL1201862, “PubChem BioAssay data set” (2004).
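Dose response: 5 concentrations. Exposure: 48 h. Format: 96-well plates. Endpoint: linear interpolation; highest concentration if not reached. GI50 is the concentration that inhibits growth by half.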 The source made the active and inactive calls. Cut-off read from the data, not from the text of the source: active = GI50 up to about 1.1 µM and inactive = higher.

Columns and labels:
Experiment in all cases: NCI anticancer screen, dose series, 48 h
[1] = tested on: KM12
[2] = tested on: HCC 2998
[3] = tested on: UACC-257
[4] = tested on: MDA-N
[5] = tested on: EKVX
[6] = tested on: SF-295
[7] = tested on: OVCAR-3
[8] = tested on: NCI-H522
[9] = tested on: NCI/ADR-RES
[10] = tested on: TK-10
[11] = tested on: Malme-3M
[12] = tested on: SN12C
[13] = tested on: SF-268
[14] = tested on: OVCAR-5
[15] = tested on: HL-60
[16] = tested on: LOX IMVI
[17] = tested on: HT-29
[18] = tested on: Hs-578T

Measured: GI50

CCCCc1c(C(=O)OC(C)(C)C)cc(C#Cc2cc(C(=O)OC(C)(C)C)c(CCCC)c(C(=O)OC(C)(C)C)c2)cc1C(=O)OC(C)(C)C
inactive: [1] > 100 µM | [2] > 100 µM | [3] > 100 µM | [4] > 100 µM | [5] > 100 µM | [6] > 100 µM | [7] > 100 µM | [8] > 100 µM | [9] > 100 µM | [10] > 100 µM | [11] > 100 µM | [12] > 100 µM | [13] > 100 µM | [14] > 100 µM

O=c1[nH]nc(Cc2ccccc2)n1/N=C/c1ccc(/C=N/n2c(Cc3ccccc3)n[nH]c2=O)cc1
inactive: [1] > 100 µM | [15] 40.5 µM | [16] > 100 µM | [3] > 100 µM | [4] > 100 µM | [5] > 100 µM | [6] 77.3 µM | [17] > 100 µM | [18] > 100 µM | [7] > 100 µM | [8] > 100 µM | [9] > 100 µM | [10] 54 µM | [11] > 100 µM | [12] > 100 µM | [13] > 100 µM | [14] > 100 µM

Cc1c2c(n3c(nc4ccccc43)c1C#N)NCC2
inactive: [1] > 10 µM | [15] > 10 µM | [16] > 10 µM | [3] > 10 µM | [4] > 10 µM | [5] > 10 µM | [6] > 10 µM | [17] > 10 µM | [18] > 10 µM | [7] > 10 µM | [9] > 10 µM | [10] > 10 µM | [11] > 10 µM | [12] > 10 µM | [13] > 10 µM | [14] > 10 µM

OC(c1cc2ccccc2[nH]1)C1(c2cccnc2)SCCCS1 (stereo unspecified)
inactive: [1] 26.7 µM | [15] 26.2 µM | [16] 79.4 µM | [3] 52 µM | [4] 52.2 µM | [5] 21.2 µM | [6] 68.5 µM | [17] 33 µM | [18] 41.3 µM | [8] 38.5 µM | [9] 53.3 µM | [10] > 100 µM | [11] 87.3 µM | [12] 99.3 µM | [13] 43.3 µM | [14] 24.1 µM

O=C(O)C1=NN(c2ccc(S(=O)(=O)O)cc2)C2(C1)SCC(=O)N2c1nc2ccccc2s1 (stereo unspecified)
inactive: [1] > 100 µM | [15] > 100 µM | [16] > 100 µM | [2] > 100 µM | [3] > 100 µM | [5] > 100 µM | [6] > 100 µM | [17] > 100 µM | [18] > 100 µM | [7] > 100 µM | [8] > 100 µM | [9] > 100 µM | [10] > 100 µM | [11] > 100 µM | [12] > 100 µM | [13] > 100 µM | [14] > 100 µM

O=C1NC(=O)C(C(c2ccc(Cl)cc2)C2C(=O)NC(=O)NC2=O)C(=O)N1.c1ccncc1
inactive: [1] > 100 µM | [15] > 100 µM | [16] > 100 µM | [3] > 100 µM | [4] > 100 µM | [5] > 100 µM | [6] > 100 µM | [17] > 100 µM | [18] > 100 µM | [7] > 100 µM | [8] > 100 µM | [9] > 100 µM | [10] > 100 µM | [11] > 100 µM | [12] > 100 µM | [14] > 100 µM

COC(=N)C12C(N)=NC(OC)(OC)C1(C#N)C21C(=O)N(c2ccccc2)N=C1C (stereo unspecified)
inactive: [1] > 100 µM | [15] > 100 µM | [2] > 100 µM | [3] > 100 µM | [4] > 100 µM | [5] > 100 µM | [6] > 100 µM | [17] > 100 µM | [7] > 100 µM | [8] > 100 µM | [9] > 100 µM | [11] > 100 µM | [12] > 100 µM | [13] > 100 µM | [14] > 100 µM

O=C(O)/C=C\C(=O)Nc1ccccn1
inactive: [1] > 100 µM | [15] > 100 µM | [16] > 100 µM | [3] > 100 µM | [4] > 100 µM | [5] > 100 µM | [6] > 100 µM | [17] > 100 µM | [18] > 100 µM | [7] > 100 µM | [8] > 100 µM | [9] > 100 µM | [11] > 100 µM | [12] > 100 µM | [13] > 100 µM | [14] > 100 µM

COc1cc(/C=C2\CCC(C)C3C2=NN(C(C)=O)C3c2cc(OC)c(OC)c(OC)c2)cc(OC)c1OC (stereo unspecified)
inactive: [1] > 33 µM | [15] > 91.6 µM | [16] > 100 µM | [2] > 100 µM | [3] > 59.8 µM | [4] > 100 µM | [5] > 100 µM | [6] > 100 µM | [17] > 100 µM | [18] 45.8 µM | [7] > 100 µM | [8] 5.09 µM | [10] > 81.1 µM | [11] 43.6 µM | [12] > 100 µM | [13] > 85.1 µM | [14] 10.2 µM

COc1cccc(C(=O)O)c1Cc1cccc2ccccc12
inactive: [1] > 100 µM | [15] > 100 µM | [16] > 100 µM | [2] > 100 µM | [3] > 100 µM | [5] > 100 µM | [6] > 100 µM | [17] > 100 µM | [7] > 100 µM | [8] > 100 µM | [10] > 100 µM | [11] > 100 µM | [12] > 100 µM | [13] > 100 µM | [14] > 100 µM

O=c1[nH]c2ccc(Cl)cc2o1
inactive: [1] > 100 µM | [15] > 100 µM | [16] > 100 µM | [3] > 100 µM | [4] > 100 µM | [5] 26.7 µM | [6] > 100 µM | [17] > 100 µM | [18] > 100 µM | [7] > 100 µM | [8] 96.4 µM | [9] > 100 µM | [10] > 100 µM | [11] > 100 µM | [12] > 100 µM | [13] > 100 µM | [14] > 100 µM

CC(Br)C(=O)Nc1ccc(C(=O)O)c(O)c1 (stereo unspecified)
inactive: [1] 70.8 µM | [15] 26.6 µM | [16] 34.5 µM | [3] 42.4 µM | [4] 34.6 µM | [5] > 100 µM | [6] > 100 µM | [17] 62.4 µM | [18] 33.4 µM | [7] 29.2 µM | [8] 20 µM | [9] 49.5 µM | [10] 52.4 µM | [11] 20.7 µM | [12] 24.7 µM | [13] 36.3 µM | [14] > 100 µM

COc1cc(Cn2c3c(c4cc(O)ccc42)Cc2ccccc2C3=O)cc(OC)c1
inactive: [1] 39.2 µM | [15] > 100 µM | [16] 76.4 µM | [3] > 100 µM | [4] 12 µM | [6] 25.8 µM | [17] 37.1 µM | [18] > 100 µM | [7] > 100 µM | [9] 21.3 µM | [10] > 100 µM | [11] 42.1 µM | [12] 24.7 µM | [13] > 100 µM | [14] 19.1 µM

C=C(C)CCC(O)[C@](C)(O)[C@H]1[C@H](O)C[C@@]2(C)[C@@H]3CCc4c(cc(OC5OC(CO)C(O)C(O)C5O)c(O)c4C)C3(C)C(=O)C[C@]12C (stereo partly specified)
inactive: [1] > 100 µM | [16] > 100 µM | [2] > 100 µM | [3] > 100 µM | [4] > 100 µM | [5] > 100 µM | [6] > 100 µM | [17] > 100 µM | [7] > 100 µM | [8] > 100 µM | [9] > 100 µM | [10] > 100 µM | [11] > 100 µM | [12] > 100 µM | [13] > 100 µM | [14] > 100 µM

CC(O)C1(CNc2cc(Cl)nc(N)n2)CC(CCc2ccccc2)C1 (stereo unspecified)
inactive: [1] 14.5 µM | [15] 14.1 µM | [16] 3.92 µM | [3] 4.56 µM | [4] 12.9 µM | [5] 10.2 µM | [6] 14.4 µM | [17] 13 µM | [18] 17.3 µM | [7] 16.1 µM | [8] 8.41 µM | [9] 4.1 µM | [10] 16.1 µM | [11] 13.3 µM | [12] 7.66 µM | [13] 14.9 µM | [14] 17.2 µM

Cc1ccc(S(=O)(=O)OCCC2CN(C(=O)OCc3ccccc3)C(C)(C)O2)cc1 (stereo unspecified)
inactive: [1] 2.75 µM | [15] 5.24 µM | [16] 10.8 µM | [2] 6.07 µM | [3] 7.41 µM | [4] 12.5 µM | [5] 18.3 µM | [6] 13.5 µM | [7] 39.6 µM | [8] 2.7 µM | [9] 2.4 µM | [10] 8.75 µM | [11] 8.2 µM | [12] > 100 µM | [14] > 100 µM

O=c1oc2ccccc2cc1-c1cc2ccccn2c1
inactive: [1] > 100 µM | [15] > 100 µM | [16] > 100 µM | [3] > 100 µM | [4] > 100 µM | [5] > 100 µM | [6] > 100 µM | [17] > 100 µM | [18] > 100 µM | [7] > 100 µM | [8] > 100 µM | [9] > 100 µM | [10] > 100 µM | [13] > 100 µM | [14] > 100 µM
